Measured values as given in US4537717A.
Converted amounts (≈) assume the structure as drawn.

Assays:
[1] = tested on: Streptococcus pyogenes C203; assay type: cell-based; details: agar dilution; 2, 5, 17, 22 median of three tests; paired values two experiments
[2] = tested on: Staphylococcus epidermidis EPI2; assay type: cell-based; details: agar dilution; 2, 5, 17, 22 median of three tests; paired values two experiments
[3] = tested on: Staphylococcus aureus X1.1; assay type: cell-based; details: agar dilution; 2, 5, 17, 22 median of three tests; paired values two experiments
toxicity test (LD50) = details: mouse, in vivo, iv, mice; administered intravenously
Streptococcus Group 9960 = assay type: cell-based, Streptococcus pneumoniae; details: agar dilution; 2, 5, 17, 22 median of three tests; paired values two experiments
[4] = tested on: Staphylococcus epidermidis EPI1; assay type: cell-based; details: agar dilution; 2, 5, 17, 22 median of three tests; paired values two experiments
[5] = tested on: Staphylococcus aureus V41; assay type: cell-based; details: penicillin-resistant strain; agar dilution; 2, 5, 17, 22 median of three tests; paired values two experiments
[6] = tested on: Streptococcus pneumoniae Group D X66; assay type: cell-based; details: agar dilution; 2, 5, 17, 22 median of three tests; paired values two experiments
[7] = tested on: Streptococcus pneumoniae Park I; assay type: cell-based; details: agar dilution; 2, 5, 17, 22 median of three tests; paired values two experiments
[8] = tested on: Staphylococcus aureus X400; assay type: cell-based; details: methicillin-resistant strain; agar dilution; 2, 5, 17, 22 median of three tests; paired values two experiments
[9] = tested on: Micrococcus luteus ATCC 9341; experiment: agar-plate disc-diffusion test; assay type: cell-based; details: suspended in water at 1 mg/ml; 7 mm disc; 24-48 hours at 25-37° C.
Staphylococcus aureus = experiment: in vivo activity against experimental bacterial infection (ED50); details: mice; two doses subcutaneously; dose protecting fifty percent of test animals
[10] = tested on: Staphylococcus aureus ATCC 6738P; experiment: agar-plate disc-diffusion test; assay type: cell-based; details: suspended in water at 1 mg/ml; 7 mm disc; 24-48 hours at 25-37° C.
[11] = tested on: Bacillus subtilis ATCC 6633; experiment: agar-plate disc-diffusion test; details: 7 mm disc, 24-48 hours at 25-37° C.; for Size of Zone of Inhibition (mm) B. subtilis ATCC 6633, grown on minimal nutrient agar: 1 mg/ml; for Size of Zone of Inhibition (mm) Bacillus subtilis ATCC 6633: suspended in water at 1 mg/ml
Procedure: ^a Compounds were suspended in water at a concentration of 1 mg/ml; a
7 mm disc was dipped into the suspension and then placed on the agar
surface; incubation: 24-48 hours at 25-37° C.
^b Grown on minimal nutrient agar

Streptococcus pyogenes = experiment: in vivo activity against experimental bacterial infection (ED50); details: mice, dose protecting fifty percent of test animals

Row | SMILES | MIC Streptococcus pyogenes C203 [1] | MIC Staphylococcus epidermidis EPI2 [2] | MIC Staphylococcus aureus X1.1 [3] | LD50 (toxicity test (LD50)) | MIC Streptococcus pneumoniae Group 9960 (Streptococcus Group 9960) | MIC Staphylococcus epidermidis EPI1 [4] | MIC Staphylococcus aureus V41 [5] | MIC Streptococcus pneumoniae Group D X66 [6] | MIC Streptococcus pneumoniae Park I [7] | MIC Staphylococcus aureus X400 [8] | Size of Zone of Inhibition (mm) Micrococcus luteus ATCC 9341 [9] | ED50 Staphylococcus aureus Subcutaneous (Staphylococcus aureus) | Size of Zone of Inhibition (mm) Staphylococcus aureus ATCC 6738P [10] | Size of Zone of Inhibition (mm) B. subtilis ATCC 6633, grown on minimal nutrient agar [11] | Size of Zone of Inhibition (mm) Bacillus subtilis ATCC 6633 [11] | ED50 Streptococcus pyogenes Oral (Streptococcus pyogenes; two doses orally) | ED50 Streptococcus pyogenes Subcutaneous (Streptococcus pyogenes; two doses subcutaneously)
1 | CCCCCCC(=O)N[C@@H](Cc1c[nH]c2ccccc12)C(=O)N[C@@H](CC(N)=O)C(=O)N[C@@H](CC(=O)O)C(=O)N[C@@H]1C(=O)NCC(=O)N[C@@H](CCCN)C(=O)N[C@@H](CC(=O)O)C(=O)N[C@H](C)C(=O)N[C@@H](CC(=O)O)C(=O)NCC(=O)N[C@H](CO)C(=O)N[C@@H]([C@H](C)CC(=O)O)C(=O)N[C@@H](CC(=O)c2ccccc2N)C(=O)O[C@@H]1C [Compound 1] | 2 µg/mL (≈ 1.27 µM) | 8 µg/mL (≈ 5.07 µM) | 8 µg/mL (≈ 5.07 µM) | > 600 mg/kg | 128 µg/mL (≈ 81.1 µM) | 16 µg/mL (≈ 10.1 µM) | 8 µg/mL (≈ 5.07 µM) | 128 µg/mL (≈ 81.1 µM) | 8 µg/mL (≈ 5.07 µM) | 8 µg/mL (≈ 5.07 µM) | 21 mm | 2.65 mg/kg × 2 | 17 mm | 16 mm | 15 mm | – | –
2 | CCCCCCCCC(=O)N[C@@H](Cc1c[nH]c2ccccc12)C(=O)N[C@@H](CC(N)=O)C(=O)N[C@@H](CC(=O)O)C(=O)N[C@@H]1C(=O)NCC(=O)N[C@@H](CCCN)C(=O)N[C@@H](CC(=O)O)C(=O)N[C@H](C)C(=O)N[C@@H](CC(=O)O)C(=O)NCC(=O)N[C@H](CO)C(=O)N[C@@H]([C@H](C)CC(=O)O)C(=O)N[C@@H](CC(=O)c2ccccc2N)C(=O)O[C@@H]1C [Compound 3] | 0.25 µg/mL (≈ 0.156 µM) | 2 µg/mL (≈ 1.24 µM) | 2 µg/mL (≈ 1.24 µM) | > 600 mg/kg | 8 µg/mL (≈ 4.98 µM) | 4 µg/mL (≈ 2.49 µM) | 2 µg/mL (≈ 1.24 µM) | 32 µg/mL (≈ 19.9 µM) | 2 µg/mL (≈ 1.24 µM) | 4 µg/mL (≈ 2.49 µM) | 18 mm | 0.5 mg/kg × 2 | 20 mm | 27 mm | 16 mm | – | –
3 | CCCCCCCCCCC(=O)N[C@@H](Cc1c[nH]c2ccccc12)C(=O)N[C@@H](CC(N)=O)C(=O)N[C@@H](CC(=O)O)C(=O)N[C@@H]1C(=O)NCC(=O)N[C@@H](CCCN)C(=O)N[C@@H](CC(=O)O)C(=O)N[C@H](C)C(=O)N[C@@H](CC(=O)O)C(=O)NCC(=O)N[C@H](CO)C(=O)N[C@@H]([C@H](C)CC(=O)O)C(=O)N[C@@H](CC(=O)c2ccccc2N)C(=O)O[C@@H]1C [Compound 5] | 0.125 µg/mL (≈ 0.0765 µM) | 0.5 µg/mL (≈ 0.306 µM) | 0.25 µg/mL (≈ 0.153 µM) | > 600 mg/kg | 0.5 µg/mL (≈ 0.306 µM) | 0.5 µg/mL (≈ 0.306 µM) | 0.25 µg/mL (≈ 0.153 µM) | 2 µg/mL (≈ 1.22 µM) | 0.25 µg/mL (≈ 0.153 µM) | 0.5 µg/mL (≈ 0.306 µM) | 21 mm | 0.37 mg/kg × 2 | 19 mm | 21 mm | 19 mm | 138 mg/kg × 2 | 0.13 mg/kg × 2
